Where two headings read alike, the source gives them in different places. Blank lines part the entries; values can stand above or below the compound they belong to.
Assays:
[1] = tested on: patients with glaucoma or ocular hypertension; assay: Clinical study: intraocular pressure (IOP) lowering, multicenter double-masked randomized parallel-group; type: in vivo; settings: range over week 2, week 6 and month 3 (hours 0, 2, 7, 9)
Experimental: IOP (hours 0, 2, 7, and 9), patient satisfaction questionnaire, patient comfort of study medication questionnaire, pharmacoeconomic evaluation by investigator
All data were summarized with descriptive statistics, frequency tables, and/or data listings. Safety analyses included all patients who received at least 1 dose of study medication. Analyses were performed for the primary efficacy variable IOP using the intent-to-treat (ITT) population with last observation carried forward (LOCF), and the per protocol population with observed cases.
Continuous variables (eg, IOP) were analyzed using analysis of variance (ANOVA). Within-group changes from baseline for continuous variables were analyzed using paired t-tests.
A 2-way ANOVA model with factors for treatment and investigator was used for the analysis of IOP. Comparisons were made between the Combination and each of the 2 monotherapies in a pairwise fashion using contrasts from the ANOVA model, with the same error term. A separate ANOVA model was employed at each hour/visit measurement of IOP. […] Point estimates of the mean treatment differences, as well as 2-sided 95% confidence intervals (CI) of the difference, were provided at each timepoint.

[2] = tested on: patients with glaucoma or ocular hypertension; assay: Clinical study: safety (adverse events, heart rate, blood pressure, visual acuity); type: in vivo
[3] = Clinical study: quantitation of plasma brimonidine and timolol concentrations; type: in vivo, patients; settings: for concentration at 1 h: human, plasma, other: ophthalmic solution, 1 hour postdose, read-out: mean±SD plasma timolol concentration

SMILES: Brc1c(N=C2NCCN2)ccc2nccnc12.O=C(O)C(O)C(O)C(=O)O [Brimonidine, 5-Bromo-6-(2-imidazolidinylideneamino)quinoxaline L-tartrate]
- Mean changes from baseline diurnal IOP [1]: −3.5 to −5.7 mm Hg
- Mean values of diurnal IOP [1]: 17.4 to 21.5 mm Hg

- concentration at 1 h ([3]; month 3): 0.873 ± 0.516 ng/mL
- concentration at 1 h ([3]; week 2): 0.95 ± 0.709 ng/mL
- plasma timolol concentration in males lower than in females ([3]; month 3): 39%
- plasma timolol concentration in males lower than in females ([3]; week 2): 45%
SMILES: CC(C)(C)NC[C@H](O)COc1nsnc1N1CCOCC1.O=C(O)/C=C\C(=O)O [Timolol]
- Mean changes from baseline diurnal IOP [1]: −4.5 to −6.4 mm Hg
- Mean values of diurnal IOP [1]: 17.5 to 18.9 mm Hg
- Serious adverse events reported ([2]; % of patients): 2.0%
- discontinuation of patients due to adverse events ([2]; % of patients): 3.0%
- allergic conjunctivitis, % of patients ([2]; adverse event through month 3): (0.0%)
- allergic conjunctivitis, number of patients ([2]; adverse event through month 3): 0
- asthenia, % of patients ([2]; adverse event through month 3): (0.5%)
- asthenia, number of patients ([2]; adverse event through month 3): 1
- burning sensation in eye, % of patients ([2]; adverse event through month 3): (12.7%)
- burning sensation in eye, number of patients ([2]; adverse event through month 3): 25
- conjunctival folliculosis, % of patients ([2]; adverse event through month 3): (0.5%)
- conjunctival folliculosis, number of patients ([2]; adverse event through month 3): 1
- conjunctival hyperemia, % of patients ([2]; adverse event through month 3): (5.6%)
- conjunctival hyperemia, number of patients ([2]; adverse event through month 3): 11
- epiphora, % of patients ([2]; adverse event through month 3): (1.5%)
- epiphora, number of patients ([2]; adverse event through month 3): 3
- eye pruritus, % of patients ([2]; adverse event through month 3): (1.5%)
- eye pruritus, number of patients ([2]; adverse event through month 3): 3
- foreign body sensation, % of patients ([2]; adverse event through month 3): (2.5%)
- foreign body sensation, number of patients ([2]; adverse event through month 3): 5
- infection (body as a whole), % of patients ([2]; adverse event through month 3): (4.1%)
- infection (body as a whole), number of patients ([2]; adverse event through month 3): 8
- oral dryness, % of patients ([2]; adverse event through month 3): (0.5%)
- oral dryness, number of patients ([2]; adverse event through month 3): 1
- somnolence, % of patients ([2]; adverse event through month 3): (0.0%)
- somnolence, number of patients ([2]; adverse event through month 3): 0
- stinging sensation eye, % of patients ([2]; adverse event through month 3): (5.6%)
- stinging sensation eye, number of patients ([2]; adverse event through month 3): 11
- visual disturbance, % of patients ([2]; adverse event through month 3): (1.5%)
- visual disturbance, number of patients ([2]; adverse event through month 3): 3
- incidence of eye discharge ([2]; through month 3): 0%
- patients who experienced one or more adverse events, regardless of causality ([2]; through month 3): 50.8%
